Test results published in US8329735B2, “Tetrazole compounds which selectively modulate the CB2 receptor” (Boehringer Ingelheim International GmbH, priority 2010, dated 2012).
Converted amounts (≈) assume the structure as drawn. Read-outs that look alike come from different tables or passages of the source.

How the values were obtained:
human CB2R = molecular target: T1, human CB2R (Homo sapiens, UniProt P34972); experiment: CB2R mediated modulation of cAMP synthesis; type: cell-based
T1 construct: host or cells: CHO cells
T1 sequence (P34972 whole entry): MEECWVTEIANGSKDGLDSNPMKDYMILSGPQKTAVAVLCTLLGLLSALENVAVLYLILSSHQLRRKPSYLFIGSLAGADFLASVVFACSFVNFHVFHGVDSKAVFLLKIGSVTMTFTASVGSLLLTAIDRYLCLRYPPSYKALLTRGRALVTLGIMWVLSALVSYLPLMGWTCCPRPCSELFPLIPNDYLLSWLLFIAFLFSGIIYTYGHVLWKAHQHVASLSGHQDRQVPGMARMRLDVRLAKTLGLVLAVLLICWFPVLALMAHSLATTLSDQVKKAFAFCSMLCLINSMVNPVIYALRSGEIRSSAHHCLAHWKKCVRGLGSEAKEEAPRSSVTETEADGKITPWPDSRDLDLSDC
Experimental: Compounds of the invention are evaluated for their CB2 agonist or inverse agonistic activity in accordance with the following experimental method.
(§1) CHO cells expressing human CB2R (Euroscreen) are plated at a density of 5000 cells per well in 384 well plates and incubated overnight at 37° C. After removing the media, the cells are treated with test compounds diluted in stimulation buffer containing 1 mM IBMX, 0.25% BSA and 10 uM Forskolin. The assay is incubated for 30 minutes at 37° C. Cells are lysed and the cAMP concentration is measured using DiscoverX—XS cAMP kit, following the manufacturer's protocol. In this setting, agonists will decrease forskolin induced production of cAMP while inverse agonists will further increase forskolin induced production of cAMP. EC50 of agonists are calculated as follows. The maximal amount of cAMP produced by forskolin compared to the level of cAMP inhibited by 1 uM CP55940 is defined as 100%. The EC50 value of each test compound is determined as the concentration at which 50% of the forskolin-stimulated cAMP synthesis is inhibited. Data is analyzed using a four-parameter logistic model. (Model 205 of XLfit 4.0).

human CB1R = molecular target: T2, human CB1R (Homo sapiens, UniProt P21554); experiment: CB1R mediated modulation of cAMP synthesis; type: cell-based; settings: CB1 CAMP EC50, Table XI; CHO cells expressing human CB1R, forskolin-stimulated cAMP
T2 construct: host or cells: CHO cells
T2 sequence (P21554 whole entry): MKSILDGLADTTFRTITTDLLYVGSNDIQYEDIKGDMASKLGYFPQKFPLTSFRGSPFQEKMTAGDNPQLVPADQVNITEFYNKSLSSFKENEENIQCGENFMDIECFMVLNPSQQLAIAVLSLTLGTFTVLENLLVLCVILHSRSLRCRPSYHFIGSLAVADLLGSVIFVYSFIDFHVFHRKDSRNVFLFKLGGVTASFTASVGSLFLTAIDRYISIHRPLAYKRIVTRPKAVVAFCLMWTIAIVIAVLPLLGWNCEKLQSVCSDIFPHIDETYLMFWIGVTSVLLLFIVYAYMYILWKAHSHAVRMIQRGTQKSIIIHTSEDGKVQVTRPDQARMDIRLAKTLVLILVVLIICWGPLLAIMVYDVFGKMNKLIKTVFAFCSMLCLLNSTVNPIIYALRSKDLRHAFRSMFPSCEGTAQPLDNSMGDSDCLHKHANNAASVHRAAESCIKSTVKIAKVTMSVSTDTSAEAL
Experimental: Compounds of the invention are evaluated for their CB1 agonist or inverse agonistic activity in accordance with the following experimental method.
as §1, with “CB1R” for “CB2R”

[1] = Human microsomal stability assay; type: in vitro ADME; settings: human liver microsomes 1 mg protein/ml, 1 uM compound, pH 7.4
Experimental: The double time point high throughput screen for human liver microsomal metabolic stability is used to measure the in vitro metabolism of test compounds by human liver microsomal enzymes. The data collected are analyzed to calculate a half-life (t½, min) and clearance (expressed as percent hepatic blood flow, % QH) for test compounds. The assay is performed in 50 mM potassium phosphate buffer, pH 7.4 and 2.5 mM NADPH. Test samples are dissolved in DMSO and acetonitrile for a final assay concentration of 1 uM. Human liver microsomes are diluted in assay buffer to a final assay concentration of 1 mg protein/ml. Compound solution and microsome suspension are added to assay buffer for a final incubation volume of 350 ul. The preparation is incubated for 5 min in a 37° C. water bath. The reaction is started by the addition of NADPH. Volumes of 80 ul are removed from the incubation mix at 0, 5, and 30 min after the start of the reaction and added to 160 ul acetonitrile. The supernatant is transferred to 0.25 mm glass fiber filter plates and centrifuged for 5 min at 3000 rpm. Injection volumes of 10 ul are typically added to HPLC columns with formic acid in water or acetonitrile at a flow rate of 0.3 ml/min. Percent loss of parent compound is calculated from the area under each time point to determine the half-life and clearance. Preferred compounds of the invention will have a human liver microsomal stability of <25% QH.

[2] = Aqueous (equilibrium) solubility assay; type: physicochemical; settings: aqueous buffer, thermodynamic from solid, 48 hrs equilibrium
Experimental: The equilibrium solubility of compounds is determined in pH 2, 4.5, 6.8 buffers. Prior to solubility measurement, the crystalline/amorphous characteristics of the sample are determined by observing the powder form under polarized light microscope. Solubility is only measured when compound is crystalline.
Approximately 2 mg of compound are weighed out into a vial and 1-2 ml of buffer are added into the vial (pHs 2 & 4.5, use 1 ml and for pHs 6.8 and 7.4 use 2 ml of buffer). The vial is rotated for 48 hrs protected from light. After 48 hrs, the sample is transferred into an eppendorf tube and centrifuged for 10 minutes at 14,000 RPM, if the supernatant is not clear, it is filtered (PVDF filter). The clear supernatant is diluted if necessary, before analyzing via HPLC. The final pH of the supernatant or the filtrate is measured and reported. The external calibration curve is used to determine the solubility value. The percentage of extraneous peaks relative to the parent peak is monitored in the standard solution as well as the solubility sample. Preferred compounds of the invention will have a solubility of >100 μg/ml.

[3] = system: Salmonella bacterial strains TA98 and TA100; experiment: Ames mutagenicity assay: bacteria reverse mutation screening assay; type: cell-based; settings: TA98 and TA100, presence or absence of S9
Experimental: The Ames ^(1) Salmonella bacterial strains used in the abbreviated screening assay ^(2) are TA98 and TA100. Actively growing (log phase) bacteria are incubated with test compound and trace amounts of histidine in the presence or absence of S9 for 48 hours on minimal agar plates. Test compound is dissolved in DMSO to a final concentration of 100 mg/ml. The stock is serially diluted to yield concentrations of 100, 50, 25 12.5 and 6.3 mg/ml. Fifty microliters of dosing solution is combined with top agar and buffer (or S9 mix) and poured on duplicate plates to yield effective doses of 5000, 2500, 1250, 625 and 313 μg/plate. Positive and negative controls plates are included. Formation of colonies after 48 hr incubation at 37° C. is an indication of genetic reversion, either arising spontaneously or caused by the test compound. The average number of spontaneous colonies growing on control plates is compared to the number of colonies on test plates. A fold increase of 2-3× over background is generally considered a positive response for mutagenicity. • 1. Maron, D. M. and Ames, B. N. (1983). “Revised Methods for the Salmonella Mutagenicity Test”. Mutat. Res. 113, 173-215. • 2. D. A. Burke, D. J. Wedd, and B. Burlinson (1996). “Use of the Miniscreen assay to screen novel compounds for bacterial mutagenicity in the pharmaceutical industry”. Mutagenesis 11: 201-205.

[4] = pH 4.5 buffer, read-out: solubility at pH 4.5
[5] = pH 6.8 buffer, read-out: solubility at pH 6.8

SMILES | EC50 (human CB2R) [nM] | EC50 (human CB1R) [nM] | HLM clearance (percent hepatic blood flow) [1] [QH %] | solubility at 48 h [2, 4] [µg/mL] | solubility at 48 h [2, 5] [µg/mL] | Ames [3]
CC(C)(C)c1csc(NC(=O)C(C)(C)S(=O)(=O)CC2CCOCC2)n1 [Example 57 WO08039645] | 23 | 2400 | 87 | 383 (≈ 986 µM) | 406 (≈ 1040 µM) | negative
CC(C)(C)c1cc(NC(=O)C(C)(C)S(=O)(=O)C2CCOCC2)no1 [Example 66 WO08039645] | 0.72 | > 50000 | 57 | 56 (≈ 156 µM) | 53 (≈ 148 µM) | negative
CC(C)(C)c1cc(NC(=O)C(C)(C)S(=O)(=O)CC2CCOCC2)no1 [Example 56 WO08039645] | 4.5 | > 20000 | 47 | 47 (≈ 126 µM) | 44 (≈ 118 µM) | negative
CC(C)(C)c1cc(NC(=O)C(C)(C)S(=O)(=O)c2ccc(F)cc2)on1 [Example 248 WO08014199] | 0.98 | 3290 | 32 | 1.68 (≈ 4.56 µM) | 1.25 (≈ 3.39 µM) | negative
CC(C)(C)c1csc(NC(=O)C(C)(C)S(=O)(=O)C2CCOCC2)n1 [Example 67 WO08039645] | 12 | 11400 | 79 | 15 (≈ 40.1 µM) | 16 (≈ 42.7 µM) | negative
